In brackets after ≈: the same amount, converted by molar mass. Where a name gives a salt, the structure may show the parent alone. Read-outs that look alike come from different tables or passages of the source.
Tests used:
[1] = tested on: Phenion®FT Skin Models (keratinocytes and fibroblasts)
rats and mice = conditions: cited from earlier work; for Carcinogenicity: rodent studies, topical for sodium xylene sulfonate, ref [65], [72], [82], [85]
[2] = Solubility in vehicle and precipitation on the skin; type: physicochemical; conditions: for Doses with precipitation on the tissue surface: visual inspection, at cell harvest; for Top dose limited by solubility in acetone: acetone vehicle
[3] = EpiSkin S9 over 4 h for IQ; ref [58]; cited from earlier work
[4] = over 24 h; ref [58]; cited from earlier work
[5] = tested on: bone marrow, blood, liver, skin; conditions: cited from earlier work

C[C@@]1(CO)[C@H](O)CC[C@@]2(C)[C@H]1CC[C@H]1C[C@@H]3C[C@@]12CC[C@]3(O)CO [APC, aphidicolin]
Effect on background DNA damage (SC + APC vs SC) [1]: no major impact on the background DNA damage

CN(C)N=O [DMNA, dimethylnitrosamine]
RS Comet assay overall classification [1]: negative

O=C1CCCCC1 [Cyclohexanone]
Dependence of the result on APC [1]: positive or equivocal results in the presence of APC only

NC(=S)N(C1CCCCC1)C1CCCCC1 [N,N-dicyclohexyl thiourea]
Effect on % tail DNA / DNA migration in APC experiment [1]: did not cause any significant increases in % tail DNA
Effect on % tail DNA / DNA migration in standard experiment [1]: did not induce an increase in % tail DNA in either cell type
RS Comet assay overall classification [1]: negative
Dose producing signs of strong cytotoxicity that limited the top dose (Phenion®FT Skin Models): 200 µg/cm^2
Dose(s) exceeding the cytotoxicity limit in main or APC experiments (Phenion®FT Skin Models): ≥ 160 µg/cm^2
Carcinogenicity (rats and mice): not carcinogenic

Cc1c2ccccc2c(C)c2c1ccc1ccccc12 [DMBA, 7,12-dimethylbenz[a]anthracene]
Dependence of the result on APC [1]: detected in the presence of APC only

O=[N+]([O-])c1ccc(O)cc1 [4-Nitrophenol]
Effect on % tail DNA / DNA migration in standard experiment [1]: statistically significant increase in % tail DNA was observed in keratinocytes only at the two lowest doses
RS Comet assay overall classification [1]: negative
Dose producing signs of strong cytotoxicity that limited the top dose (Phenion®FT Skin Models; human): 48 µg/cm^2
Dose tested without cytotoxicity exceeding the cut-off (Phenion®FT Skin Models; human): 32 µg/cm^2

CC(C)(C)c1cc(O)ccc1O [TBHQ, Tert-butylhydroquinone]
Effect on % tail DNA / DNA migration in APC experiment [1]: small but statistically significant increase in DNA migration at the two highest doses in fibroblasts only
Effect on % tail DNA / DNA migration in standard experiment [1]: Moderate increases in % tail DNA were observed in this experiment but only at the two highest doses that both exceeded the cytotoxicity limit
Expert call of the performing laboratory in the coded phase [1]: equivocal
RS Comet assay overall classification [1]: negative
Dose(s) with statistically significant increase in DNA migration, fibroblasts ([1]; human): 16 µg/cm^2
Dose producing signs of strong cytotoxicity that limited the top dose (Phenion®FT Skin Models; human): 40 µg/cm^2
Dose(s) exceeding the cytotoxicity limit in main or APC experiments (Phenion®FT Skin Models; human): 20 µg/cm^2

COc1cc(/C=C/C(=O)CC(=O)/C=C/c2ccc(O)c(OC)c2)ccc1O [Curcumin]
Effect on % tail DNA / DNA migration in APC experiment [1]: did not increase DNA migration in either experiment
Effect on % tail DNA / DNA migration in standard experiment [1]: marked increase in DNA damage
RS Comet assay overall classification [1]: negative
Doses with precipitation on the tissue surface [2]: precipitation was present at all the tested doses
Dose producing signs of strong cytotoxicity that limited the top dose (Phenion®FT Skin Models; human): 50 µg/cm^2
Dose(s) exceeding the cytotoxicity limit in main or APC experiments (Phenion®FT Skin Models; human): 50 µg/cm^2

C1=Cc2cc3cccc4ccc5ccc1c2c5c43 [CPPE, Cyclopenta[c,d]pyrene]
Cell type(s) with increased DNA migration [1]: keratinocytes only
Dependence of the result on APC [1]: detected in the presence of APC only
Effect on % tail DNA / DNA migration in APC experiment [1]: significant increase in % tail DNA was observed in the absence of limiting cytotoxicity at four of the top five doses tested in the keratinocytes
Effect on % tail DNA / DNA migration in standard experiment [1]: DNA migration was not increased in either cell type
RS Comet assay overall classification [1]: positive
Dose producing signs of strong cytotoxicity that limited the top dose (Phenion®FT Skin Models): 75 µg/cm^2

O=P1(N(CCCl)CCCl)NCCCO1 (stereo not shown) [CP, Cyclophosphamide]
Cell type(s) with increased DNA migration [1]: increased in both cell types
Effect on % tail DNA / DNA migration in standard experiment [1]: dose-dependent increase in % tail DNA in both cell types
RS Comet assay overall classification [1]: positive
Dose producing signs of strong cytotoxicity that limited the top dose (Phenion®FT Skin Models; human): 1200 µg/cm^2

2-Amino-3-methylimidazo[4,5-f]quinolone [IQ]
Effect on % tail DNA / DNA migration in APC experiment [1]: did not show a statistically significant increase in DNA damage at any dose
Effect on % tail DNA / DNA migration in standard experiment [1]: moderate increase in % tail DNA was detected in one mid-dose group that was slightly outside the cytotoxicity limits
RS Comet assay overall classification [1]: negative
Metabolism by skin S9 [3]: not metabolised
Metabolism in ex vivo skin [4]: not metabolised
Dose(s) exceeding the cytotoxicity limit in main or APC experiments (Phenion®FT Skin Models): 33.3–300 µg/cm^2
IARC class (rats and mice; ref IARC): 2A

CCc1cc(C(N)=S)ccn1 [Ethionamide]
Effect on % tail DNA / DNA migration in APC experiment [1]: no significant increases in % tail DNA or cytotoxicity were observed
Effect on % tail DNA / DNA migration in standard experiment [1]: failed to increase % tail DNA
Expert call of the performing laboratory in the coded phase [1]: equivocal
RS Comet assay overall classification [1]: negative
Dose(s) with statistically significant increase in DNA migration, fibroblasts ([1]; human): 320 µg/cm^2
Top dose limited by solubility in acetone [2]: 320 µg/cm^2
Dose tested without cytotoxicity exceeding the cut-off (Phenion®FT Skin Models; human): 240 µg/cm^2
Dose(s) exceeding the cytotoxicity limit in main or APC experiments (Phenion®FT Skin Models; human): 320 µg/cm^2

OC[C@@H](O)[C@@H](O)[C@H](O)[C@H](O)CO [D-Mannitol, D-mannitol]
Effect on % tail DNA / DNA migration in APC experiment [1]: did not significantly increase DNA migration
Effect on % tail DNA / DNA migration in standard experiment [1]: no increase in DNA migration was observed at any dose
RS Comet assay overall classification [1]: negative
Top dose limited by solubility in acetone [2]: 320 µg/cm^2

Cc1cn([C@H]2C[C@H](N=[N+]=[N-])[C@@H](CO)O2)c(=O)[nH]c1=O [AZT, Azidothymidine]
Cell type(s) with increased DNA migration [1]: increased in both cell types
Effect on % tail DNA / DNA migration in standard experiment [1]: strong dose-dependent increase in % tail DNA in keratinocytes and fibroblasts
RS Comet assay overall classification [1]: positive
Dose producing signs of strong cytotoxicity that limited the top dose (Phenion®FT Skin Models; human): 700 µg/cm^2

Cc1ccc(N)cc1N [2,4-DAT, 2,4-diaminotoluene]
Effect on % tail DNA / DNA migration in standard experiment [1]: did not increase the % tail DNA of either cell type
RS Comet assay overall classification [1]: negative
Dose producing signs of strong cytotoxicity that limited the top dose (Phenion®FT Skin Models; human): 1280 µg/cm^2
Dose(s) exceeding the cytotoxicity limit in main or APC experiments (Phenion®FT Skin Models; human): 1200 µg/cm^2

Sodium xylene sulfonate
Effect on % tail DNA / DNA migration in APC experiment [1]: no significant increases in % tail DNA
Effect on % tail DNA / DNA migration in standard experiment [1]: did not induce an increase in % tail DNA in either cell type
RS Comet assay overall classification [1]: negative
Dose producing signs of strong cytotoxicity that limited the top dose (Phenion®FT Skin Models): 512 µg/cm^2
Dose(s) exceeding the cytotoxicity limit in main or APC experiments (Phenion®FT Skin Models): 640 µg/cm^2
Carcinogenicity (rats and mice): negative for carcinogenicity

CCOS(C)(=O)=O [EMS, Ethyl methanesulfonate]
Cell type(s) with increased DNA migration [1]: increased in both cell types
Effect on % tail DNA / DNA migration in standard experiment [1]: clear and dose-dependent increase in % tail DNA in both cell types
RS Comet assay overall classification [1]: positive
Dose producing signs of strong cytotoxicity that limited the top dose (Phenion®FT Skin Models; human): 200 µg/cm^2

CC(=O)Nc1ccc2c(c1)Cc1ccccc1-2 [2-AAF, 2-acetylaminofluorene]
Cell type(s) with increased DNA migration [1]: increased in both cell types
Dependence of the result on APC [1]: detected in the presence of APC only
Effect on % tail DNA / DNA migration in APC experiment [1]: significant increase in DNA migration at all doses tested
Effect on % tail DNA / DNA migration in standard experiment [1]: no increase in DNA migration was observed
RS Comet assay overall classification [1]: positive
Dose(s) with statistically significant increase in % tail DNA, keratinocytes ([1]; human): 80 µg/cm^2
Doses with precipitation on the tissue surface [2]: ≥ 128 µg/cm^2
Dose(s) exceeding the cytotoxicity limit in main or APC experiments (Phenion®FT Skin Models; human): 80 µg/cm^2

COc1cc([C@@H]2c3cc4c(cc3[C@@H](O[C@@H]3O[C@@H]5CO[C@@H](C)O[C@H]5[C@H](O)[C@H]3O)[C@H]3COC(=O)[C@H]23)OCO4)cc(OC)c1O [Etoposide]
Dose producing signs of strong cytotoxicity that limited the top dose (Phenion®FT Skin Models; human): > 120 µg/cm^2

CC1(C)S[C@@H]2[C@H](NC(=O)[C@H](N)c3ccccc3)C(=O)N2[C@H]1C(=O)O [Ampicillin sodium salt]
Effect on % tail DNA / DNA migration in standard experiment [1]: small but statistically significant increase in DNA migration was seen in fibroblasts only at the high dose
RS Comet assay overall classification [1]: negative

Oc1cccc(O)c1 [Resorcinol, 1,3-Dihydroxybenzene]
Dose producing signs of strong cytotoxicity that limited the top dose (Phenion®FT Skin Models; human): 250 µg/cm^2
In vivo micronucleus test in mice [5]: positive
In vivo micronucleus test in rats [5]: no effects

Cc1c(N)cccc1N [2,6-DAT, 2,6-diaminotoluene]
Effect on % tail DNA / DNA migration in standard experiment [1]: did not increase the DNA migration
RS Comet assay overall classification [1]: negative
Dose producing signs of strong cytotoxicity that limited the top dose (Phenion®FT Skin Models; human): 800 µg/cm^2
Dose(s) exceeding the cytotoxicity limit in main or APC experiments (Phenion®FT Skin Models; human): ≥ 160 µg/cm^2

c1ccc2c(c1)cc1ccc3cccc4ccc2c1c34 [BaP, benzo[a]pyrene]
solubility ([2]; acetone): 10000 µg/mL (≈ 39.6 mM)
Top dose limited by solubility in acetone [2]: 160 µg/cm^2
Dose tested without cytotoxicity exceeding the cut-off (Phenion®FT Skin Models; human): 160 µg/cm^2

CCCCCl [N-butyl chloride]
Dose with statistically significant increase in DNA migration, keratinocytes [1]: 400 µg/cm^2
Effect on % tail DNA / DNA migration in APC experiment [1]: did not show any significant increases in DNA migration
RS Comet assay overall classification [1]: negative
Dose tested without cytotoxicity exceeding the cut-off (Phenion®FT Skin Models): 1600 µg/cm^2

Nc1nc[nH]n1 [Amitrole]
Effect on % tail DNA / DNA migration in APC experiment [1]: small but statistically significant increase in DNA migration was observed at several doses
Effect on % tail DNA / DNA migration in standard experiment [1]: no observed cytotoxicity outside the cut-off limits or increases in DNA damage
RS Comet assay overall classification [1]: negative
Dose tested without cytotoxicity exceeding the cut-off (Phenion®FT Skin Models; human): 1600 µg/cm^2

COS(C)(=O)=O [MMS, methyl methane sulfonate]
Positive control response in standard experiments [1]: clear induction of DNA migration

Nc1ccc(Cl)cc1 [4-Chloroaniline, 4-chloroaniline]
Effect on % tail DNA / DNA migration in APC experiment [1]: did not induce an increase in DNA migration
Effect on % tail DNA / DNA migration in standard experiment [1]: did not increase % tail DNA in either cell type
RS Comet assay overall classification [1]: negative
Metabolism by skin S9 [3]: N-acetylated to N-acetyl-4-chloroaniline
Metabolism in ex vivo skin [4]: not metabolised
Dose producing signs of strong cytotoxicity that limited the top dose (Phenion®FT Skin Models; human): 5 µg/cm^2
Dose(s) exceeding the cytotoxicity limit in main or APC experiments (Phenion®FT Skin Models; human): ≥ 10 µg/cm^2
Carcinogenicity (rats and mice): carcinogenic

Reference: PMC8081376 (Mutagenesis, 2020)
